Blank lines part the entries; values can stand above or below the molecule they belong to.
What was measured:
[1] = system: melanocytes of murine line B16; assay: Inhibition of melanin production in B16 melanocytes stimulated with an α-MSH derivative; type: cell-based; details: Mus musculus, B16 cells
Experimental: Determination of the percentage inhibition of melanin production by the hydroxytyrosol dihydrosinapate of the invention of formula (IIa) or the ferulic acid derivative of the prior art, by quantitative analysis of the total melanin synthesized by melanocytes of murine line B16 following application of the compound under test.
Melanocytes (B16 cells) are cultured for 24 hours in a 96-well plate in an appropriate medium. […] After 72 hours of incubation, the culture medium is withdrawn, and total melanin is quantified by measuring the absorbance at 405 nm against a standard range of synthetic melanin from 0.78 to 100 μg/mL.
The results are expressed as percentage inhibition of melanin production relative to the negative control, and are presented in Table 1.
The inhibitory activity on melanin production of the product tested is calculated as a percentage according to the following formula:
% inhibition=[(mean stimulated control−mean basal control)−(sample value−mean basal control)]/(mean stimulated control−mean basal control)×100
where: • Mean stimulated control: mean of the values obtained with a medium supplemented with an alpha-MSH derivative • Sample value: value obtained with the compound under test • Mean basal control: Mean of the values obtained with a medium not supplemented with an alpha-MSH derivative

[2] = TBARS test, lipid peroxidation of UVB-irradiated liposomal suspension; details: for % inhibition of lipid peroxidation: UVB 2 hours
Experimental: Study of the radical scavenger activity of the hydroxytyrosol dihydrosinapate of the invention of formula (IIa) and of the prior-art ferulic acid derivative by the TBARS test.
Two identical 96-well plates are produced according to a defined plate plan. 50 μL of a sample mixture prepared by diluting a solution of a test compound or of a negative control (vehicle medium without test compound) or of a positive control (D-L-alpha-tocopherol) to 1/10 in a liposomal suspension are distributed per well, in quadruplicate. One of the two plates is irradiated with UVB for 2 hours. The other plate, serving as a control, is incubated in the absence of light and at ambient temperature for 2 hours.
At the end of irradiation, an amount of 100 μL of 20% trichloroacetic acid solution was added per well, followed by an amount of 34 μL of 1% thiobarbituric acid solution. The plates are then incubated at 105° C. for 25 minutes.
The contents of each well are centrifuged at 5700 rpm for 5 minutes, and then an amount of 100 μL of supernatant was deposited in new plates, according to the same plan, and the absorbance was read off at 530 nm.
The positive experimental control was D-L-alpha-tocopherol, at a concentration of 1%, for which a percentage inhibition of 80% was obtained.

[3] = system: keratinocytes from the A431 line; assay: Antiinflammatory activity: release of E2 prostaglandins by UVB-irradiated keratinocytes (ELISA); type: cell-based
Experimental: Study of the antiinflammatory activity of the hydroxytyrosol dihydrosinapate of the invention of formula (IIa), by measurement of the inhibition of release of E2 prostaglandins by keratinocytes under the effect of UVB.
The keratinocytes from the A431 line are cultured in an appropriate medium at 37° C. for 72 hours under 5% CO2. The culture medium is then withdrawn and replaced with the medium containing the products under test, and also the positive and negative controls. The cells are subsequently irradiated with UV B at 30 mJ/cm2. The cells are incubated for an extra 24 hours at 37° C. under 5% CO2. The cell supernatants are subsequently recovered, and the E2 prostaglandins (PGE2) released are quantified by an ELISA assay.
An amount of 100 μL of each sample, control or PGE2 standard is transferred to the wells of a 96-well plate, which are coated with antibodies directed against rat immunoglobulin G (IgG). Then an amount of 25 μL of PGE2-peroxidase conjugate is added to each well, followed by an amount of 25 μL of anti-PGE2 monoclonal antibody. The plate is incubated at 4° C. overnight. The wells are then rinsed and an amount of 100 μL of peroxidase substrate is added. After 15 minutes of incubation at ambient temperature, the optical density is read off at 450 nm. The amount of prostaglandin E2 released after irradiation is deduced from a commercial PGE2 standard range from 0 to 400 pg/mL of PGE2.
The negative control, represented by the cells which were not treated with samples and which underwent irradiation by UV B, gave rise to 100% release of PGE2. The positive experimental control is aspirin, which at 0.03% gave rise to 5%+/−2% release of PGE2.

melanocytes = assay: Cytotoxicity, MTT cell viability on melanocytes; type: cell-based; details: 0.25%, positive cytotoxicity control
Experimental: (§1) Study of cell viability following application of the hydroxytyrosol dihydrosinapate of the invention of formula (IIa) to keratinocytes or melanocytes.
(§2) The cells (keratinocytes or melanocytes) were cultured in a 96-well plate at 37° C. under 5% CO2 in an appropriate medium until confluence. The medium was withdrawn and then an amount of 200 μL of a 0.5 mg/mL MTT solution was added. The plates were then incubated at 37° C. for 3 hours, after which the MTT solution was withdrawn from each well and replaced with DMSO. The plates were agitated for 15 minutes, and the optical density was measured at 550 nm.
(§3) The negative cytotoxicity control is PBS. The positive cytotoxicity control is 0.25% SDS. 0.1% DMSO was used as control.

keratinocytes = assay: Cytotoxicity, MTT cell viability on keratinocytes; type: cell-based; details: 0.25%, positive cytotoxicity control
Experimental: as §1, §2, §3

human tyrosinase = target: T1, human tyrosinase (Homo sapiens, UniProt P14679); assay: Anti-human tyrosinase activity in normal human melanocytes (MBTH/L-Dopa, OD490); type: cell-based; details: normal human melanocytes, read-out: % inhibition of activity of tyrosinase +/− standard deviation
T1 construct: endogenous in cells; host or cells: normal human melanocytes obtained from abdominal plasty
T1 sequence (P14679 19-529): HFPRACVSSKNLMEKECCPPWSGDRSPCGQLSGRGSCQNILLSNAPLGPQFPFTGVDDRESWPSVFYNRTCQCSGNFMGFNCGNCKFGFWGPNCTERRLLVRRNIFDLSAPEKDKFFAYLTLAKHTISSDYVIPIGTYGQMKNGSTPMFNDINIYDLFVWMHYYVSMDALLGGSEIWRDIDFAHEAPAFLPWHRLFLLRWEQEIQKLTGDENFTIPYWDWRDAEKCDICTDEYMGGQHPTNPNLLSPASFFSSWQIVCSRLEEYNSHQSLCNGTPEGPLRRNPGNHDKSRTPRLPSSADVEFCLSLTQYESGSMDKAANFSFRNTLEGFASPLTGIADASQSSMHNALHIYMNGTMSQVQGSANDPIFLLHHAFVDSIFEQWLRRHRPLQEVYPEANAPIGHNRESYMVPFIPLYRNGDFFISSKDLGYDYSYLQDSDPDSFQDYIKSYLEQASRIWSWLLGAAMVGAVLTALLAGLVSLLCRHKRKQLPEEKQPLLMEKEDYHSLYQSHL
Experimental: Study of the inhibition of tyrosinase by the hydroxytyrosol dihydrosinapate of the invention of formula (IIa), in comparison with the prior-art ferulic acid derivative, by quantitative analysis of the human tyrosinase activity of melanocytes cultured as a monolayer following application of the compound under test. Normal human melanocytes (obtained from abdominal plasty) are seeded in a 24-well plate at 80000 cells per well. They are cultured until confluence, and the compounds under test are applied in the culture media for 24 hours. After 24 hours, the media are removed and the melanocytes are detached by mechanical action. Extraction is carried out by thermal shock and then the supernatants are recovered and incubated with MBTH (methyl benzothiazolinone-hydrazone) (Sigma) and L-Dopa (Sigma). The optical density (OD) at 490 nm (OD490) is measured after 30 minutes of incubation, and the inhibition of tyrosinase is calculated according to the following formula: % inhibition=100−[100×(OD490 sample/level of proteins in sample)/(OD490 negative control/level of proteins in negative control)] The OD490 is therefore related to the level of protein, which is the measurement in each culture well. […] The results are presented as % inhibition of activity of tyrosinase, in Table 2.

[4] = DPPH radical scavenger test (acellular); details: 30 minutes
Description: Study of the radical scavenger activity of the hydroxytyrosol dihydrosinapate of the invention of formula (IIa) and of the prior-art ferulic acid derivative in an acellular in vitro model, using DPPH.
1,1-Diphenyl-2-picrylhydrazyl, owing to its paramagnetic structure, is able to accept an electron or a hydrogen radical in order to become a stable diamagnetic molecule.
The addition of a compound which provides electrons gives rise to decoloring of the 1,1-diphenyl-2-picrylhydrazyl in a manner proportional to the number of electrons accepted by the radical, and this decoloration can be monitored by measuring the absorbance at 530 nm (OD530).
[…] At the end of the incubation, the radical scavenger activity of the compound under test is evaluated by measuring the absorbance of the solution at 530 nm.
The results are presented as % inhibition of the DPPH radical, in Table 3a).
The radical scavenger activity of the test product is calculated as a percentage, according to the following formula:
100−((OD530 in the presence of the compound under test/OD530 in the absence of compound)×100)

Structure (SMILES): O=c1cc(CO)occ1O [Kojic acid, kojic acid]
inhibition at 25 µg/mL ([1]; positive control at 0.025 mg/mL, read-out: percentage inhibition of melanin production): 50%

Structure (SMILES): Cc1c(C)c2c(c(C)c1O)CCC(C)(CCCC(C)CCCC(C)CCCC(C)C)O2 [D-L-alpha-tocopherol]
percentage inhibition (lipid peroxidation) ([2]; positive control at a concentration of 1%): 80%

Structure (SMILES): CC(=O)Oc1ccccc1C(=O)O [aspirin, reference compound]
% release of PGE2 after irradiation ([3]; A431 keratinocytes, 0.03%, UV B 30 mJ/cm2, positive control): 5%+/−2%

Structure (SMILES): CCCCCCCCCCCCOS(=O)(=O)[O-].[Na+] [SDS, reference compound]
Percentage cell viability, Mean (melanocytes): 0.8%
Percentage cell viability, Mean (keratinocytes): 1.3%

inhibition at 1000 µM (human tyrosinase; 1 mM): 65%
Structure (SMILES): OC[C@H]1O[C@@H](Oc2ccc(O)cc2)[C@H](O)[C@@H](O)[C@@H]1O [Arbutin, arbutin, reference compound]

Structure (SMILES): COc1cc(CCC(=O)OCCc2ccc(O)c(O)c2)cc(OC)c1O
inhibition of prostaglandin E2 release (in words) ([3]; keratinocytes, 30 μM, after irradiation with UVB): greatly inhibited prostaglandin E2 release

inhibition at 1 µM (human tyrosinase; 1 μM, 24 hours): -9.22%
inhibition at 10 µM (human tyrosinase; 10 μM, 24 hours): 18.8%
inhibition at 100 µM (human tyrosinase; 100 μM, 24 hours): 67.8%
Structure (SMILES): COc1cc(/C=C/C(=O)NCCc2ccc(O)c(O)c2)ccc1O [Prior-art ferulic acid derivative, N-trans-feruloyldopamine, reference compound]
inhibition at 10 µM ([1]; 10 μM, 72 hours, read-out: % inhibition of melanin +/− standard deviation): 37%
inhibition at 30 µM ([1]; 30 μM, 72 hours, read-out: % inhibition of melanin +/− standard deviation): 76%
inhibition at 50 µM ([1]; 50 μM, 72 hours, read-out: % inhibition of melanin +/− standard deviation): 88%
% inhibition of lipid peroxidation ([2]; 1 μM after dilution to 1/10th in the liposomal suspension): −16.95%
% inhibition of lipid peroxidation ([2]; 5 μM after dilution to 1/10th in the liposomal suspension): 6.69%
% inhibition of lipid peroxidation ([2]; 30 μM after dilution to 1/10th in the liposomal suspension): 11.77%
% inhibition of lipid peroxidation ([2]; 50 μM after dilution to 1/10th in the liposomal suspension): 31.74%
% inhibition of lipid peroxidation ([2]; 100 μM after dilution to 1/10th in the liposomal suspension): 64.04%
% inhibition of lipid peroxidation ([2]; 1000 μM after dilution to 1/10th in the liposomal suspension): 94.72%
% inhibition of the DPPH radical ([4]; 1 μM): 6.02 +/− 0.758%
% inhibition of the DPPH radical ([4]; 5 μM): 35.02 +/− 1.209%
% inhibition of the DPPH radical ([4]; 10 μM): 61.85 +/− 1.35%
% inhibition of the DPPH radical ([4]; 30 μM): 89.91 +/− 0.66%
% inhibition of the DPPH radical ([4]; 50 μM): 89.91 +/− 0.59%
% inhibition of the DPPH radical ([4]; 100 μM): 89.91 +/− 0.66%
% inhibition of the DPPH radical ([4]; 1000 μM): 90.99 +/− 0.46%

— patent US20150342847A1, “NOVEL DERIVATIVES OF SINAPINIC ACID AND THE COSMETIC OR PHARMACEUTICAL USES THEREOF” (BASF Beauty Care Solutions France SAS, priority 2012, published 2015)
